From patent US11044937B2, “Solution comprising nicotine in unprotonated form and protonated form” (Nicoventures Holdings Limited, priority 2014, dated 2021)
Where two headings read alike, the source gives them in different places.

Key:
[1] = on heating in an electronic vapor provision system; compared to many other acids
[2] = Method: The determination of pKa values of nicotine in glycerol/water systems was carried out using the basic approach described in “Spectroscopic investigations into the acid-base properties of nicotine at different temperatures”, Peter M. Clayton, Carl A. Vas, Tam T. T. Bui, Alex F. Drake and Kevin McAdam, Anal. Methods, 2013, 5, 81-88, and summarized below. Because the system is predominately non-aqueous the parameter psKa2 was measured, where subscript s refers to the solvent composition in this largely non-aqueous system, and subscript 2 refers to the pKa value of the pyrrolidyl nitrogen.
Further information on the determination of pKa values of nicotine is provided in “Use of chiroptical spectroscopy to determine the ionisation status of (S)-nicotine in e-cigarette formulations and snus”, Clayton et al, ST 49, CORESTA Congress, Qubec City, Canada, 12-16 Oct. 2014 (available at http://www.bat-science.com/groupms/sites/BAT_9GVJXS.nsf/vwPagesWebLive/DO9PVC3 G/$FILE/CORE STA_PC_2014.pdf).
A range of glycerol/water/nicotine solutions were prepared, with the water concentration fixed at 9%, the nicotine concentration varying from 30 μg/ml to 3 mg/ml; and the glycerol content comprising the remainder of the solutions.
Simultaneous UV & CD spectra of glycerol/s-nicotine/water solutions were measured on the Applied Photophysics Ltd (Leatherhead, UK) Chiracsan Plus spectrometer. The UV absorbance & CD spectra were measured between 300-200 nm region, with various pathlengths depending upon the nicotine concentration of the solution—10 mm, 5 mm, 2 mm, 1 mm, 0.5 mm, 0.1 mm and 0.01 mm pathlengths. The instrument was flushed continuously with pure evaporated nitrogen throughout the measurements. Throughout measurements spectra were recorded with a 0.5 nm step size, a 1 s measurement time-per-point and a spectral bandwidth of 2 nm. Where possible, all CD spectra were smoothed with a window factor of 4 using the Savitzky-Golay method for better presentation.
Solutions of S-Nicotine in glycerol/water were pH titrated at 23° C. The pH of these solutions was raised towards alkaline by adding small aliquots of NaOH (˜pH10) and then lowered to pH2 by adding small aliquots of HCl. A series of 0.1M, 0.5M, 1M, 5M and 10M of HCl and NaOH solutions were used during the pH titration. pHs were measured at 23° C. using a Corning pH105 pH meter with a RMS pH electrode. […] Due to the viscosity of the solutions, and the optical density in the CD spectra of the high nicotine concentration solutions, very small path-length cells were required for nicotine concentrations above 3 mg/ml.

SMILES | level of acid transfer to the aerosol [1] | production of degradation products [1] | psKa2 ([2]; at 30 mg/ml nicotine concentration, from curve fitting (regression fit to FIG. 1)) | psKa2 ([2]; nicotine 0.03 g/L (0.185 mM), 9% water, nicotine/glycerol system, 23° C.) | psKa2 ([2]; nicotine 0.06 g/L (0.370 mM), 9% water, nicotine/glycerol system, 23° C.) | psKa2 ([2]; nicotine 0.3 g/L (1.85 mM), 9% water, nicotine/glycerol system, 23° C.) | psKa2 ([2]; nicotine 0.6 g/L (3.70 mM), 9% water, nicotine/glycerol system, 23° C.) | psKa2 ([2]; nicotine 3 g/L (18.53 mM), 9% water, nicotine/glycerol system, 23° C.)
O=C(O)c1ccccc1 [benzoic acid] | greater | less | – | – | – | – | – | –
CC(=O)CCC(=O)O [levulinic acid] | greater | – | – | – | – | – | – | –
CN1CCC[C@H]1c1cccnc1 [nicotine, 3-(1-methylpyrrolidin-2-yl) pyridine] | – | – | 7.26 | 7.49 | 7.34 | 7.30 | 7.27 | 7.25
